Reference: patent publication US6419922B1, “Candida saitoana compositions for biocontrol of plant postharvest decay” (Biotechnology Research and Development Corporation, priority 1998, dated 2002)

Legend:
Botrytis cinerea = assay: Inhibition of spore germination in 24-well microtiter dish; type: cell-based; details: for Inhibition of Germination (%) Botrytis cinerea: five hundred spores per well, 0.2% maltose extract broth, 24° C., after 24 hours
Description: The inhibitory activity of antifungal enzymes, in this example, lysozyme and lyticase, against the pathogen Botrytis cinerea, was determined in a 24-well microtiter dish. Autoclaved solutions of 0.2% maltose extract broth were amended with membrane-sterilized solutions of lysozyme and lyticase to obtain a concentration of 0.1% and 0.5% of lysozyme and lyticase, respectively. One hundred microliters of the enzyme solution was dispensed into each well. Each well was inoculated with five hundred spores of B. cinerea. Four replicates of eight wells were used for each treatment. Microtiter dishes were incubated in the dark at 24° C. Percent spore germination was determined after 24 hours. Spores were inhibited by either enzyme.

P. expansum = assay: Curative effect on established infection of apple fruit (treated 24 hours after inoculation); type: in vivo, Penicillium expansum; details: treatment 24 hours after inoculation
Description: (§1) Yeast cells from 48 hour old cultures of C. saitoana were pelleted by centrifugation, resuspended in sterile distilled water, and centrifuged. Pellets were suspended in water, 0.01% and 0.1% lysozyme of 0.6% lyticase, and the concentration of the yeast suspension was adjusted to 10^8 CFU/ml.
(§2) Apple, orange, and lemon fruit were individually wounded and each wound was treated with fifty microliters of one of the following treatments:
(§3) Fruit wounds were either treated with the different treatments and then inoculated with 20 μL of a pathogen spore suspension to determine protective effects, or inoculated with a pathogen spore suspension and 24 hours later were treated with the different treatments to determine curative effects. Apple wounds were inoculated (i.e., pathogens were placed in the wound) with the pathogens B. cinerea and P. expansum, whereas orange and lemon wounds were inoculated with P. digitatum. Treated fruit were incubated at 24° C. in plastic trays at high humidity. For each treatment, 20 to 100 fruit were arranged in a randomized complete block design. Percent infection was determined for each treatment after 7 days of storage. The tests were repeated twice. […] The effect was greater than for either agent alone.
(§4) In the past, the lack of curative activity has been identified as a major limitation of biological approaches to pathogen control.

P. digitatum = assay: Curative effect on established infection of citrus fruit (treated 24 hours after inoculation); type: in vivo, Penicillium digitatum; details: treatment 24 hours after inoculation
Description: as §1, §2, §3, §4

Candida saitoana = assay: Survival of Candida saitoana in enzyme solutions (yeast maltose broth); type: cell-based; details: for Yeast Cell Counts (CFU/ml) 1 day / Yeast Cell Counts (CFU/ml) 4 days: inoculated with 10^4 yeast cells/ml, yeast maltose broth
Description: The effect of lysozyme and lyticase on the survival of C. saitoana in yeast maltose broth was also determined. Culture flasks containing sterile solutions of 0.2% yeast maltose broth were amended with membrane-sterilized solutions of lysozyme and lyticase to obtain a concentration of 0.1% and 0.6% of lysozyme and lyticase, respectively. Each flask was started with approximately 10^4 colony forming units (CFU) of yeast and the flasks were incubated on an orbital shaker set at 200 rpm. Samples were collected and dilution-plated in duplicate on yeast-maltose agar medium. The plates were incubated 24° C. and colonies were counted after 48 h.

Penicillium digitatum [1] = assay: Protective effect on decay of wounded orange and lemon fruit, treated then challenge inoculated; type: in vivo; details: wounds treated then inoculated with 20 μL P. digitatum 10^4 conidia/ml, 7 days at 24° C.
Description: as §1, §2
yeast cell suspension (C. saitoana);
yeast cell suspension containing 0.01% or 0.1% lysozyme;
yeast cell suspension containing 0.6% lyticase;
as §3

Penicillium digitatum [2] = assay: Natural infection of orange and lemon fruit, semi-commercial on line spray treatment; type: in vivo; details: line spray within 48 hours after harvest, 50-55° F., after 3 weeks
Text: Additional tests were also done to determine the effect of different combinations of biochemicals and microorganisms on natural infections of citrus fruit. Orange and lemon fruit from field bins were washed on line following standard commercial practices [Standard Pre Chlorine was (50 ppm); size and color blemish sorting, and randomized]. Thereafter the fruit was washed and treated with either water, a yeast cell suspension containing 0.1% lysozyme, or Imazalil using an on line spray system. Each treatment consisted of at least 8 to 13 boxes of fruit; each box representing a replicate of approximately 60 to 100 fruit. The fruit was held at 50-55° F. and the percentage of decay was determined after 3 weeks.

Molecule	Inhibitory activity against Botrytis cinerea spores (in words) (Botrytis cinerea)	Inhibition of Germination (%) Botrytis cinerea (Botrytis cinerea)	Effect on established infection caused by P. expansum (in words) (P. expansum)	Effect on established infection caused by P. digitatum (in words) (P. digitatum)	Effect on growth / survival of the yeast C. saitoana (in words) (Candida saitoana)	Yeast Cell Counts (CFU/ml) 1 day (Candida saitoana)	Yeast Cell Counts (CFU/ml) 4 days (Candida saitoana)	Infected Fruit (%) Penicillium digitatum Lemon (Penicillium digitatum [1])	Infected Fruit (%) Penicillium digitatum Orange (Penicillium digitatum [1])	Infected Fruit (%) Penicillium digitatum Orange (Penicillium digitatum [1]; listed as 0.1% lyticase)	Infected Fruit (%) Penicillium digitatum Lemon (Penicillium digitatum [2]; lemon)	Infected Fruit (%) Penicillium digitatum Orange (Penicillium digitatum [2]; orange)	Infected Fruit (%) Penicillium digitatum Orange (Penicillium digitatum [1]; listed as 0.01% lysozyme)
lyticase	inhibitory	100%	little effect	little effect	no effect	>2.0 × 10^5 CFU/ml	>2.0 × 10^5 CFU/ml	85b %	88%	88b %			
C=CCOC(Cn1ccnc1)c1ccc(Cl)cc1Cl (stereo not shown) [Imazalil]											4.6b %	2.4b %	
lysozyme	inhibitory	100%	little effect	little effect	no effect	>2.0 × 10^5 CFU/ml	>2.0 × 10^5 CFU/ml	86b %	88%				88b %
